These results are taken from article PMC12590356, “Novel pyrrolo[2,1-a]isoquinoline aryl ketones attenuate carbon nanotube-induced acute lung injury through NF-κB pathway inhibition” (RSC Advances, 2025).

Molecules are shown by their SMILES. “Also recorded” adds a separate entry of the source.

Data set [1] in a line: CCK8 cell viability (cytotoxicity) assay. It is filed as cell-based, murine. The conditions noted are these: mouse, RAW264.7 cells, means ± SD (n = 3). The method, then:
The toxic effect of synthesized compounds was evaluated on RAW264.7 cells utilizing a CCK8 assay kit.
RAW264.7 cells were seeded in 96-well plates and incubated with various compounds, each at a uniform concentration of 50 μM, for 24 h. Following this incubation, CCK8 was added to the 96-well plates and incubated at 37 °C for 1 h. The control group was cultivated solely in fresh medium. The absorbance at 450 nm was quantified using an enzyme marker.

Data set [2] deals with LPS-induced NO production in RAW 264.7 cells. Kind of data set: LPS-induced NO production (Griess reagent). It counts as cell-based, murine. Conditions: Mus musculus, RAW264.7, LPS 500 ng/mL 24 h, Griess reagent, means ± SD (n = 3), read-out: IC50, inhibition of LPS-induced NO production. The protocol:
Despite extensive research efforts focused on the treatment ALI, no specific drugs have been identified thus far. In the quest to discover innovative anti-inflammatory drugs for ALI treatment, we assessed the anti-inflammatory potential of pyrrolo[2,1-a]isoquinoline aryl ketones were evaluated through their capacity to suppress LPS-induced NO release in RAW264.7 cells.[21,28] Griess reagent was used to quantify the levels of LPS-induced NO release in RAW264.7 cells following treatment with the synthesized compounds.
The quantification of NO production in activated RAW264.7 cells was achieved by measuring the concentration of nitrite, which serves as a stable oxidative metabolite of NO, employing a previously established protocol.[37] RAW264.7 cells were cultured overnight in 48-well plates at a cellular density of 5 × 10^4 cells per milliliter. […] Briefly, Griess reagents I and II were mixed with 50 μL of the culture medium supernatant, and the resultant mixture was analyzed spectrophotometrically at a wavelength of 540 nm using an automated microplate reader. The NO inhibition rate was calculated using the following formula: NO inhibition rate = [(OD540 − compound OD540)/(OD540 − blank OD540)] × 100%.
For orientation: Griess reagent forms a coloured azo dye with nitrite.

In the next data set the test system is SWCNT-induced ALI mice. Kind of data set: Lung histopathology (H&E) in SWCNT-induced ALI mice. It is filed as in vivo, C57BL/6 mice. The conditions noted are these: 50 mg/kg once a day for 3 d. The protocol:
To evaluate the histopathological impact of 3g and 3k on SWCNT-induced ALI, hematoxylin and eosin (H&E) staining was performed on murine lung tissues.
(§1) Based on the results of the previous in vitro experiments, 3g and 3k were chosen for animal experiments. 3g was dissolved in 5% DMSO and 3k was dissolved in 0.5% sodium carboxymethyl cellulose (CMC-Na). Male C57BL/6 mice were randomly divided into four groups of ten animals each: CON, single-walled carbon nanotubes (SWCNT) model, 3k (50 mg kg^−1) + SWCNT, 3g (50 mg kg^−1) + SWCNT. The SWCNT model group was administered a one-time tracheal drip of 50 μL of SWCNT suspension containing 40 μg of SWCNT (approximately 1.86 mg per kg body weight) per mouse to model ALI. A blank tracheal drip of PBS was administered to the negative control. 3k + SWCNT and 3g + SWCNT groups were administered 3k or 3g of 50 mg per kg body weight once a day for 3d. The animals in the CON group received the same volume of 0.5% CMC-Na. The 1st dose was administered 1 h before modeling to avoid excessive damage to mice. The control and model groups were injected intraperitoneally with a blank solvent. […]
Mouse lung tissues were isolated and stored in a 4% paraformaldehyde solution. […] Representative images of each sample were acquired (magnification ×200) and analyzed using the ImageJ software. […]

The subject of a further data set is IL-6. The data set can be described thus: IL-6 in BALF of ALI mice (ELISA). It is filed as in vivo, C57BL/6 mice. The conditions noted are these: SWCNT-induced ALI mice, 50 mg per kg dose. The method, then:
To confirm the in vivo inhibitory effects of 3g and 3k, we examined the levels of pro-inflammatory cytokines in bronchoalveolar lavage fluid (BALF) from ALI mice.
as §1
The collected bronchoalveolar lavage fluid (BALF) was centrifuged to obtain the supernatant. The concentrations of TNF-α and IL-6 in BALF were determined using ELISA. […]
(In general: An ELISA detects its analyte on a solid surface through an enzyme-linked reagent.)

The viability is a read-out of living cells in per cent, often relative to untreated cells. As a reminder, the IC50 is the concentration that inhibits the measured activity by half. In data set [1], `O=C(c1ccc(F)cc1)c1ccc2c3ccccc3ccn12` [3g] registered a viability at 24 h, 50 µM of 86.5 ± 1.2%. The IC50 in data set [2] was 6.91 ± 0.12 µM. The “Histopathological lung changes (H&E)” value in the data set on SWCNT-induced ALI mice (50 mg/kg) is “significantly ameliorated these histopathological features; also recorded: superior efficacy in mitigating structural damage and neutrophil infiltration compared to 3k”. Also, the “IL-6 level in BALF” value in the data set with IL-6 is “effectively suppressed the release of TNF-α and IL-6”.

In turn, `Cc1ccccc1C(=O)c1ccc2c3ccccc3ccn12` [3k] yielded a viability at 24 h, 50 µM in data set [1] of 98.8 ± 4.7%. Moreover, in data set [2], the IC50 worked out at 10.1 ± 2.09 µM. In addition, the “Histopathological lung changes (H&E)” value in the data set with SWCNT-induced ALI mice is reported as “significantly ameliorated these histopathological features”. In addition, the “IL-6 level in BALF” value in the data set on IL-6 was “effectively suppressed the release of TNF-α and IL-6”.
